Experimental data as given in PMC2716445 (Journal of Biological Inorganic Chemistry, 2009).
Entries after “also recorded” stand apart in the source; their conditions may differ. Read-outs that look alike come from different tables or passages of the source.

Columns and labels:
[1] = cited from earlier work
[2] = cited from earlier work; remark: listed apart in the source
[3] = SOD activity, xanthine/xanthine oxidase with NBT detection; assay type: biochemical; conditions: read-out: SOD IC50, 10 μM NBT, pH 7.8, 25 °C
PC12 cells [4] = assay: Inhibition of STS-induced cell death in PC12 cells; assay type: cell-based, rat; conditions: STS 5 μM, 18–24 h, XTT viability
[5] = In vitro stability in simulated gastric fluid; assay type: in vitro ADME; conditions: intact compound after 90 min at 37 °C, pH approximately 1.2, HPLC
Octanol partitioning = assay type: physicochemical; conditions: octanol/aqueous; ± SD of triplicates
[6] = In vivo oral availability, plasma levels after intragastric gavage; parameters: species or system Sprague–Dawley rats; conditions: rat, mean ± SD; for Plasma concentration 30 min: dose per compound 0.23-2.7 mg kg^−1
serum albumin = serum albumin (Homo sapiens, UniProt P02768); assay: In vitro binding to serum albumin; conditions: data not shown
Chain of serum albumin (P02768 25-609 limits assumed): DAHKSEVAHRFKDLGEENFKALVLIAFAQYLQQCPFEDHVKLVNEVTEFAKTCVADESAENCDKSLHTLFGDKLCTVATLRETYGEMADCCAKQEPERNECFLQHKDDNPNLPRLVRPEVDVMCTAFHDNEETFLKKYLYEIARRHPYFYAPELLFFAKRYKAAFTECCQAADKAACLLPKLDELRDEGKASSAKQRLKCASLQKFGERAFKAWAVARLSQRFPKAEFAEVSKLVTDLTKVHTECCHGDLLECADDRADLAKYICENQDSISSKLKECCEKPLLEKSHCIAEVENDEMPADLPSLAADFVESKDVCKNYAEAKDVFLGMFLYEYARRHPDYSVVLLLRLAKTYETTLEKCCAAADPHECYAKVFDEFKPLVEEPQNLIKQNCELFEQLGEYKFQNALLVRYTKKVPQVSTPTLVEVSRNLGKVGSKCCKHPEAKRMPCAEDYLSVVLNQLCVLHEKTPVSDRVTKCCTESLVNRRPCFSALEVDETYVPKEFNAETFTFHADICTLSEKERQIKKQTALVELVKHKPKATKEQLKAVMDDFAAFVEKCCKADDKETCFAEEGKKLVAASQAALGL

[7] = tested on: capillary endothelial cells; conditions: endothelial cell culture model; cited from earlier work
[8] = tested on: capillary endothelial cells; conditions: cited from earlier work
[9] = Peroxidase activity with tetramethyl benzidine as substrate; conditions: 5 μM sample, 0.2 mM hydrogen peroxide, 0.225 mM TMB, 27 °C; ± SD of triplicates
[10] = Catalase activity, disappearance of hydrogen peroxide; conditions: initial hydrogen peroxide 100 μM; ± SD of triplicates
PC12 cells [11] = assay: Cytotoxicity in PC12 cells; assay type: cell-based, rat; conditions: data not shown
[12] = EUK-425 plasma levels after PO versus IV administration; assay type: in vivo, Sprague–Dawley rats; conditions: rats, 5 mg kg^−1 PO, 1 mg kg^−1 IV
[13] = tested on: capillary endothelial cells; assay: Mitigation of ionizing radiation-induced apoptosis in endothelial cell culture; assay type: cell-based; conditions: endothelial cell culture model; unpublished data
[14] = tested on: capillary endothelial cells; assay: Cytotoxicity in endothelial cell culture model; assay type: cell-based; conditions: unpublished data

| Compound | IC50 [3] [µM] | Protection of PC12 cells against STS-induced cell death (PC12 cells [4]) | SGF stability [5] [%] | Log10 P (Octanol partitioning) | P (octanol partitioning coefficient) (Octanol partitioning) | Plasma concentration 30 min [6] [ng/mL] | Plasma concentration 60 min [6] [ng/mL] | Plasma concentration 120 min [6] [ng/mL] | Plasma concentration 240 min [6] [ng/mL] | Plasma concentration 360 min [6] [ng/mL] | Binding to serum albumin (serum albumin) | POD [9] [μM TMB min^−1] | CAT [10] [μM H2O2 min^−1] | Cytotoxicity in PC12 cells (PC12 cells [11]) | also measured |
| --- | --- | --- | --- | --- | --- | --- | --- | --- | --- | --- | --- | --- | --- | --- | --- |
| COC(=O)c1c2nc(c(C(F)(F)F)c3ccc([n-]3)c(C(=O)OC)c3nc(c(C(F)(F)F)c4ccc1[n-]4)C=C3)C=C2.[Cl-].[Mn+3] [AEOL11207, 5,15-bis(methoxycarbonyl)-10,20-bistrifluoromethylporphyrinato manganese(III) chloride, reference compound] |  |  |  |  |  |  |  |  |  |  |  |  |  |  | Presence in brain tissue ([1]; mice, after subcutaneous or oral administration): present in the brain tissue; SOD activity, fold less active than Cu/Zn SOD ([2]; normalized to Cu/Zn SOD, assay methods differed): 123 fold |
| C1=Cc2nc1cc1ccc([n-]1)c(C1CC1)c1nc(cc3ccc([n-]3)c2C2CC2)C=C1.CC(=O)[O-].[Mn+3] [EUK-418, manganese(III) 5,15-dicyclopropylporphine acetate] | 1.73 | protect PC12 cells against STS-induced cell death; also recorded: relatively poor protector | 92 | 0.548 ± 0.009 | 3.53 ± 0.14 | 128 ± 83 | 250 ± 147 | 245 ± 145 | 299 ± 224 | 259 ± 166 | bind to serum albumin | 0.63 ± 0.08 | 0.47 ± 0.10 |  | Mitigation of apoptosis induced by ionizing radiation [7]: mitigated apoptosis induced by ionizing radiation; Cytotoxicity in endothelial cell culture model [8]: greatest cytotoxicity; Oral bioavailability in mice [1]: orally bioavailable in mice; Tissue distribution after oral administration ([1]; mice, selected tissues): kidney > liver > lung ≫ brain |
| C1=Cc2nc1cc1ccc([n-]1)c(-c1ccccc1)c1nc(cc3ccc([n-]3)c2-c2ccccc2)C=C1.CC(=O)[O-].[Mn+3] [EUK-423, manganese(III) 5,15-diphenylporphine acetate] |  | protect PC12 cells against STS-induced cell death; also recorded: most protective | 91 | 0.907 ± 0.002 | 8.07 ± 0.10 | 25 ± 7 | 53 ± 19 | 48 ± 23 | 110 ± 61 | 118 ± 17 | bind to serum albumin | 0.61 ± 0.05 | 0.45 ± 0.18 |  | Mitigation of apoptosis induced by ionizing radiation [7]: mitigated apoptosis induced by ionizing radiation; Cytotoxicity in endothelial cell culture model [8]: intermediate toxicity |
| O=C(O)c1ccc(-c2c3nc(c(-c4ccc(C(=O)O)cc4)c4ccc([n-]4)c(-c4ccc(C(=O)O)cc4)c4nc(c(-c5ccc(C(=O)O)cc5)c5ccc2[n-]5)C=C4)C=C3)cc1.[Mn+3] [MnTBAP, manganese(III) tetrakis(4-benzoic acid) porphyrin] |  |  |  |  |  |  |  |  |  |  |  |  |  |  | SOD activity ([2]; earlier reported activity due to Mn aggregate impurities): no SOD activity |
| manganese(III) 5,10,15,20-tetraethylporphine acetate [EUK-425] | 12.5 | not significantly protective; also recorded: no cytoprotective activity | 97 | 0.932 ± 0.006 | 8.56 ± 0.35 | 52 ± 19 | 48 ± 21 | 78 ± 47 | 96 ± 20 |  | bind to serum albumin | 0.58 ± 0.03 | 0.57 ± 0.15 | cytotoxic; also recorded: most cytotoxic | Detection in plasma by LC-MS/MS after oral gavage and intravenous injection [12]: detected in plasma |
| manganese(III) 5,15-di-3,4-dimethoxyphenylporphine acetate [EUK-450] | 6.39 | not significantly protective; also recorded: no cytoprotective activity | 98 | 0.650 ± 0.010 | 4.46 ± 0.11 | 11 ± 10 | 15 ± 9 | 48 ± 46 | 53 ± 53 | 47 ± 38 |  | 0.66 ± 0.10 | 0.58 ± 0.08 | cytotoxic; also recorded: most cytotoxic |  |
| manganese(III) 5,15-dicyclohexylporphine chloride [EUK-452] | 11.6 | not significantly protective; also recorded: no cytoprotective activity | 98 | 1.973 ± 0.008 | 94.0 ± 1.7 | 57 ± 50 | 52 ± 42 | 75 ± 63 | 75 ± 76 | 71 ± 63 |  | 0.63 ± 0.05 | 0.54 ± 0.06 | cytotoxic; also recorded: most cytotoxic |  |
| manganese(III) 5,15-dipropylporphine chloride [EUK-453] | 5.95 | not significantly protective; also recorded: no cytoprotective activity | 98 | 0.619 ± 0.017 | 4.16 ± 0.16 | 8.8 ± 5.9 | 8.1 ± 5.5 | 7.7 ± 6.1 | 7.7 ± 6.0 | 4.6 ± 4.2 |  | 0.56 ± 0.03 | 0.50 ± 0.11 | cytotoxic; also recorded: most cytotoxic |  |
| manganese(III) 5,15-ditetrahydropyranyoporphine chloride [EUK-451] | 3.36 | protect PC12 cells against STS-induced cell death; also recorded: most protective | 100 | −0.660 ± 0.011 | 0.22 ± 0.01 | 44 ± 38 | 61 ± 54 | 66 ± 62 | 107 ± 102 | 86 ± 70 |  | 0.59 ± 0.023 | 0.64 ± 0.25 |  | Mitigation of apoptosis induced by ionizing radiation [13]: potent mitigator; Cytotoxicity in endothelial cell culture model [14]: significantly lower cytotoxicity than the other EUK-400 compounds |
